Laboratory results published in patent publication US10242153B2, “Method for determining the risk profile of neoplastic tissue” (NOVAZOI THERANOSTICS, priority 2014, dated 2019).

What was measured:
HeLa cells = assay: Peak subG1 fraction by flow cytometry after declustering drugs, HeLa cells; format: cell-based
Protocol: (§1) To evaluate the impact of putative declustering drugs on cell cycle progression and hypodiploidy (<2N DNA content, which may indicate apoptotic cells), MDA-MB-231 (231), PC3, and HeLa cells were treated with different concentrations of declustering drugs, stained with propidium iodide, labeled with anti-MPM2 antibody, and then assessed by flow cytometry at multiple time points over 48 hr. […] The duration, highest degree, and rapidity of onset of MA varied between drugs, drug concentrations, and cell lines (data not shown). In general, the maximum MA achieved was less pronounced in Nos- and PJ-treated cells. Drug-induced onset of MA was corroborated by substantial increases in cyclin B1 levels in all cell lines. For most cases, prolonged MA (˜24 hr in duration) was followed by a substantial increase in the subG1 population fraction. […] Instances where the subGl fraction was elevated without cleaved caspase-3 may either represent caspase-independent cell death or the presence of hypodiploid cells whose fate is unclear. In general, no consistent associations between the extent, duration, or timing of MA within drugs or across cell lines was found.

[1] = test system: mammary fibrocystic (MCF10A) cells; assay: Peak subG1 fraction after declustering drugs, non-malignant MCF10A cells; format: cell-based; conditions: for Peak subG1 percents over 48 h: MCF10A
Protocol: as §1
(§2) To determine whether the CA-inducing activity of declustering drugs is restricted to cancer cells, two non-malignant cell lines, mammary fibrocystic (MCF10A) cells and adult human dermal fibroblasts (HDFs) were treated with these drugs. […] In comparison, 10 and 25 µM RBN increased peak CA over controls in interphase cells (p<0.001 and p=0.001, respectively), with the lower concentration dramatically augmenting peak CA to 56% of cells versus 15% for the higher dose (FIG. 13, panel B).
Importantly, a therapeutic window exists for several of these agents at the concentrations and in the cell lines tested compared to cancer cells.

PC3 cells = assay: Peak subG1 fraction by flow cytometry after declustering drugs, PC3 cells; format: cell-based
Protocol: as §1

[2] = test system: PLK4, Cyclin E, and Aurora A; assay: Western blotting of markers of centrosome amplification; format: cell-based; conditions: 231 cells, 25 μM
MDA-MB-231 (231) cells = assay: Peak subG1 fraction by flow cytometry (propidium iodide) after declustering drugs, 231 cells; format: cell-based, human
Protocol: as §1

[3] = test system: adult human dermal fibroblasts (HDFs); assay: Peak subG1 fraction after declustering drugs, non-malignant HDFs; format: cell-based; conditions: for Peak subG1 percents over 48 h: HDF
Protocol: as §1, §2
In HDFs, all the drugs tested increased peak subG1 over controls in a significant fashion (p<0.01 for all) (Table 2). […] Thus, it appears that there may be clinically relevant therapeutic windows for these drugs depending on the type of cancer and the drug dosage.

MCF10A cells = assay: Centrosome amplification (CA) by microscopy, MCF10A cells; format: cell-based; conditions: interphase and mitotic MCF10A cells, both concentrations (10 and 25 μM), over 24 h
Protocol: (§3) Consequently, CA was assessed in cultures treated with different concentrations of declustering drugs for 6, 12, 18, or 24 h and untreated controls via microscopy. Centrosomes were identified by γ-tubulin and centrin-2 colocalization at discrete foci.
as §2

231 cells = assay: Centrosome amplification (CA) by microscopy (γ-tubulin/centrin-2 foci), 231 cells; format: cell-based, human; conditions: 231 cells, 25 μM
Protocol: Consequently, CA was assessed in cultures treated with different concentrations of declustering drugs for 6, 12, 18, or 24 h and untreated controls via microscopy. Centrosomes were identified by γ-tubulin and centrin-2 colocalization at discrete foci. […] The peak percent CA detected over 24 h is shown in FIG. 13 (only statistically significant (P<0.05) increases over control values are represented in the Figures). To better understand the “potency” of drug-induced CA with time, the average fold change in CA over controls over 24 h was assessed (FIG. 12, panel A), whereby the extent of CA across time points (i.e., 6, 12, 18, and 24 hr) was averaged and then divided by the extent of CA in control (i.e., 0 hr). All of the drugs at least doubled the peak extent of CA in all cell lines tested (FIG. 12, panel A), although the final extent of CA could be small or large in magnitude depending on the initial centrosomal burden as shown in FIG. 11. […] The peak extent in interphase HeLa cells was somewhat less at 30.7% and 48.1% for 10 and 25 μM RBN, respectively (FIG. 13, panel A). For Nos and BN, there was no major difference in CA levels in interphase versus mitotic cells.

[4] = test system: adult human dermal fibroblasts (HDFs); assay: Centrosome amplification (CA) by microscopy, HDFs; format: cell-based; conditions: HDFs, any of the concentrations or time points assessed
Protocol: as §3, §2

N1E-115 cells [5] = assay: Neuritogenesis (neurite extension) in serum-starved N1E-115 cells; format: cell-based, murine; conditions: 48 h, PJ-34 10 μM, Paclitaxel 0.05 μM
Protocol: N1E-115 cells grown in serum-starved (SS) medium were evaluated to determine the extent of neurite formation after 48 h of treatment with RedBr-Nos (5 μM), Griseofulvin (10 μM), PJ-34 (10 μM), Paclitaxel (0.05 μM) treatment or untreated control cells (i.e., serum-starved medium (SS) alone). Panels Ai and Aii depict quantitative bar graphs representing the average length of neurites and percentage of population of cells showing neurite length >10 μm, respectively. A hundred cells were counted in each case. […] Panel B depicts an immunoblot showing CLASP1 expression levels in control (C) and CLASP1 siRNA-transfected N1E-115 cells.
Neuritogenesis is a process in nerve cells involving the extension of polarized, elongated neurites. N1E-115 cells usually extend only one major neurite per cell, which can vary in length from 5 to 500 μm. The growth cones of the neurites serve as primary focal points of motility. The effect of declustering agents on cell motility was evaluated by assessing the length and frequency of neurites formed in a serum-free medium on a laminin-coated surface.

N1E-115 cells [6] = assay: Drug sensitivity (IC50) of N1E-115 cells; format: cell-based, murine; conditions: Mus musculus; N1E-115 cells (data not shown)
N1E-115 cells [7] = assay: Vinculin localization in serum-starved N1E-115 cells; format: cell-based, murine; conditions: serum-starved (SS) cells
From the text: Vinculin stabilizes cell-substrate contacts in neuronal cells undergoing neuritogenesis, while activation by actin-binding proteins mobilizes vinculin to focal adhesions. To determine the localization of vinculin in the neurite extensions and the effect of declustering agents on its localization, N1E-115 cells were immunostained cells for vinculin and stained F-actin using rhodamine-phalloidin.

N1E-115 cells [8] = assay: Golgi (GM130) and γ-tubulin co-immunostaining of drug-treated N1E-115 cells; format: cell-based, murine; conditions: data not shown
From the text: The Golgi, which is primarily responsible for posttranslational modification and protein sorting, also functions as a microtubule-organizing center (MTOC). It has been hypothesized that supernumerary centrosomes may better organize the Golgi to enhance directional cell migration. To investigate what happens to the Golgi upon declustering drug-induced dispersal of the interphase centrosomal cluster, drug-treated N1E-115 cells were co-immunostained with GM130 (a cis-Golgi matrix protein crucial for maintaining its structure) and γ-tubulin.

N1E-115 cells [9] = assay: Interphase declustering index (DI) in N1E-115 cells; format: cell-based, murine; conditions: 6-h treatment, 25 interphase cells, drugs at their respective IC50 concentrations
Protocol: To evaluate their effect on interphase clustering, N1E-115 cells were treated with these drugs at their respective IC50 concentrations for 0, 3, 6 and 9 h and co-immunostained for γ-tubulin and α-tubulin to evaluate centrosomal spread and microtubule nucleation status, respectively.
Cell cycle phases were further evaluated via lamin A/C immunostaining to distinguish interphase declustering events from prophase centrosomal spread. To quantitate the spread of the interphase centrosomal cluster, a 3D reconstruction of z-stack images of 25 randomly-selected interphase cells from the 6-h treatment group of each drug were generated. By defining an ROI (region of interest) around the interphase centrosomal cluster, the volume of the cluster spread was calculated using Volocity software. Likewise, defining an ROI using the cell periphery provided the cell volume.

`COc1ccc2c(c1OC)C(=O)O[C@@H]2[C@H]1c2c(cc3c(c2OC)OCO3)CCN1C` [Nos, noscapine] was tested, and the “Peak subG1 percents over 48 h” value (HeLa cells; 10 μM) was 25.0%, the “Peak subG1 percents over 48 h” value (HeLa cells; 25 μM) was 50.1% and the “peak subG1 percent compared to controls” value ([1]; MCF10A cells) was “did not cause a significant increase”. The “Peak subG1 percents over 48 h” value ([1]; 10 μM) was 4.1%, the “Peak subG1 percents over 48 h” value ([1]; 25 μM) was 4.2% and the “Peak subG1 percents over 48 h” value (PC3 cells; 10 μM) was 29.9%. The “Peak subG1 percents over 48 h” value (PC3 cells; 25 μM) was 32.7%, the “expression levels of Cyclin E and PLK4” value [2] was “surge in the expression levels of Cyclin E and PLK4” and the “Peak subG1 percents over 48 h” value (MDA-MB-231 (231) cells; 10 μM) was 26.3%. The “Peak subG1 percents over 48 h” value (MDA-MB-231 (231) cells; 25 μM) was 43.9%, the “Peak subG1 percents over 48 h” value ([3]; 10 μM) was 14.8% and the “Peak subG1 percents over 48 h” value ([3]; 25 μM) was 11.2%. The “death in cancer cell lines vs. HDFs” value ([3]; both concentrations) was “more death in all cancer cell lines vs. HDFs”, the “CA / peak extent of CA versus control levels” value (MCF10A cells) was “neither concentrations of Nos or BN significantly increased CA over control levels” and the “induction of CA” value (231 cells) was “failed to induce significant CA”. The “extent of CA over controls” value [4] was “did not significantly increase the extent of CA over controls”.
In the case of `CC(=O)O[C@H]1C(=O)[C@@]2(C)[C@H]([C@H](OC(=O)c3ccccc3)[C@]3(O)C[C@H](OC(=O)[C@H](O)[C@@H](NC(=O)c4ccccc4)c4ccccc4)C(C)=C1C3(C)C)[C@]1(OC(C)=O)CO[C@@H]1C[C@@H]2O` [Paclitaxel, paclitaxel], the “inhibition of neurite extension” value (N1E-115 cells [5]) is reported as “moderate inhibition”, the IC50 (N1E-115 cells [6]) is reported as 50 nM and the “vinculin localization and focal adhesion points” value (N1E-115 cells [7]) is reported as “less severe”. For the same molecule, the “fragmentation of the interphase Golgi complex” value (N1E-115 cells [8]) was “interphase Golgi complex fragmented” and the “interphase declustering index (DI): ratio of average cluster volume to average cell volume” value (N1E-115 cells [9]) was 0.08.
